Patent US11198710B2, “Transgenic plant having herbicide resistance” (priority 2016, dated 2021)
Where two headings read alike, the source gives them in different places.

Assays:
[1] = system: wild-type rice plant (Nipponbare); assay: Sensitivity of wild-type rice (Nipponbare) to VLCFAE-inhibiting herbicides, gellan gum medium; format: in vivo; details: Oryza sativa, 168 h; for minimal effective concentration: read-out: Minimal inhibitory concentration; for IC50: read-out: I50
Method: Whether or not a rice plant comprising the TaQ8GTC0 gene introduced therein has VLCFAE-inhibiting herbicide resistance was determined on the basis of a difference in sensitivity of rice between transformant and wild-type. Accordingly, the sensitivity of the wild-type rice plant (Nipponbare) to VLCFAE-inhibiting herbicides used in the glutathione conjugation activity test was examined as described below.
The growth inhibition test was carried out using a gellan gum medium. Hoagland's mix and 3 g of gellan gum were suspended in 1 liter of distilled water and thoroughly dissolved therein by heating in a microwave. A fraction of the resultant (15 ml) was poured in a tubular bottle before it was cooled. When the herbicide (an acetone solution) was to be incorporated thereinto, the herbicide was simultaneously added at the time of filling of the gellan gum medium into the tubular bottle, followed by thorough mixing (final acetone concentration: 0.1%). Rice hulls were soaked in a 50-fold diluted sodium hypochlorite solution (antiformin) (Wako) for approximately 20 minutes and then thoroughly rinsed with water. Sterilized seeds were soaked in distilled water and allowed to stand at 27° C. for germination (for approximately 2 days). Germinating seeds were transferred with the sprout side up to a gellan gum medium containing herbicide (the tubular bottle). Subsequently, these samples, together with a beaker filled with distilled water, were placed in a transparent case, which was then covered with a clear plastic wrap. These samples were grown at 27° C. under fluorescent light illumination (14 hours of a light period and 10 hours of a dark period) for 1 week, the plants were sampled, and the plant heights were then measured. Inhibition of shoot growth was determined by comparison to control plant grown in the absence of herbicide and the concentration required for 50% inhibition (IC50) was determined by the Probit method.

[2] = system: rice plants comprising the TaQ8GTC0 gene introduced therein; assay: Herbicide resistance test of rice plants comprising the TaQ8GTC0 gene, gellan gum medium, plant height; format: in vivo; details: lineage #3-13; minimal concentration (×1), ×4 and ×16 of Table 4
Method: Hoagland's mix and 3 g of gellan gum were suspended in 1 liter of distilled water and thoroughly dissolved therein by heating in a microwave. A fraction of the resultant (15 ml) was injected into a tubular bottle before it was cooled (30 ml was injected into the plate). The herbicide was simultaneously added at the time of injection of the gellan gum medium into the tubular bottle or plate, followed by thorough mixing. Rice hulls were soaked in a 50-fold diluted sodium hypochlorite solution (antiformin) (Wako) for approximately 20 minutes and then thoroughly washed with water. Sterilized seeds were soaked in distilled water and allowed to stand at 27° C. for germination (for approximately 2 days). Germinating seeds were softly planted in the gellan gum medium (plate) containing 0.25 μM BS. These samples, together with a beaker filled with distilled water, were placed in a transparent case, which was then covered with a clear plastic wrap. These samples were grown at 27° C. under fluorescent light illumination (14 hours of a light period and 10 hours of a dark period) for 2 days. Thereafter, rice seeds that were determined to have BS resistance with the use of root elongation as the indicator were transferred to gellan gum media containing pyroxasulfone (tubal bottles) at the final concentrations of 10^−8, 10^−7, 10^−6, and 10^−5M, respectively. Subsequently, these samples, together with a beaker filled with distilled water, were placed in a transparent case, which was then covered with a clear plastic wrap. These samples were grown at 27° C. under fluorescent light illumination (14 hours of a light period and 10 hours of a dark period) for 4 to 5 days, and the plant heights were then measured. Inhibition of shoot growth was determined by comparison to control plants grown in the absence of pyroxasulfone and the concentration for required 50% inhibition (IC50) was determined by the Probit method.
Resistance of rice plants comprising the TaQ8GTC0 gene introduced therein to VLCFAE-inhibiting herbicides was tested in the same manner as with the pyroxasulfone resistance test described above.
FIGS. 7-1 to 7-6 show the results. In FIGS. 7-1 to 7-6, the concentration of 0 μM, the minimal concentration shown in Table 4 (×1), the concentration 4 times higher than the minimal concentration shown in Table 4 (×4), and the concentration 16 times higher than the minimal concentration shown in Table 4 (×16) are shown successively from left to right.

TaQ8GTC0 protein = assay: Glutathione conjugation activity of the TaQ8GTC0 protein to VLCFAE-inhibiting herbicides (HPLC); format: biochemical, wheat (Triticum aestivum); details: 378 ng TaQ8GTC0 protein, 10 μl of 1 mM herbicide in 200 μl, 30° C., 15 minutes; mean ± standard deviation
Method: All the VLCFAE-inhibiting herbicides used in this example were added to the reaction mixture as acetone solutions. Conjugation reactions to the VLCFAE-inhibiting herbicides were performed in a reaction mixture (total amount: 200 μl) containing 50 μl of 100 mM potassium phosphate buffer (pH 6.8), 10 μl of 1 mM VLCFAE-inhibiting herbicide, 20 μl of 10 mM reduced glutathione (pH 7.0), 6 μl of the TaQ8GTC0 protein (378 ng in total, PBS buffer solution) and 114 μl of PBS buffer, the reaction was conducted at 30° C. for 15 minutes, the reaction product was filtered through a […], and 50 μl of the filtered solution was injected into HPLC. HPLC analysis conditions were as described below.
Apparatus: Agilent 1100 series
Column: CAPCELL PAK C18 AQ 4.6 mm (i.d.)×250 mm (SHISEIDO)
Mobile phase: acetonitrile/distilled water=5/95 (hold for 5 min)→(4 min)→40/60 (hold for 4 min)→(4 min)→90/10 (hold for 8 min)→(1 min)→5/95 (hold for 4 min) (each solvent containing 0.5% acetic acid)
When the activity of glutathione conjugation to VLCFAE-inhibiting herbicides was analyzed, the amount of glutathione conjugates (GS conjugates) produced was determined based on the amount of VLCFAE-inhibiting herbicides decreased in the reaction solution.
In Example 1, the conjugation activity to cafenstrole was determined via quantification of the compound released by the glutathione conjugation of this herbicide. In addition, peaks of GS conjugate of other herbicides (i.e., metolachlor, alachlor, flufenacet, mefenacet, phentolazamide, indanofan, anilofos, and piperophos) were unknown. When analyzing the glutathione conjugation activities to these herbicides, accordingly, glutathione conjugation reactions were performed to produce GS conjugate in the modified conditions (i.e., more amount of enzyme was added or the conjugation reaction was conducted for longer time) in the beginning to produce glutathione conjugates (GS conjugates), and the peaks were identified with LC/MS.

ZmGST8 (ZmQ9FQD1) = details: Non-Patent Document 12; cited from earlier work
[3] = biological target: maize-derived GST (GSTI, ZmM16901) (Zea mays, UniProt P12653); details: Non-Patent Document 11; cited from earlier work
[4] = system: Arabidopsis thaliana plant comprising the TaQ8GTC0 gene introduced therein; assay: Sensitivity of Arabidopsis thaliana comprising the TaQ8GTC0 gene to herbicides on MS agar medium; format: in vivo; details: KLB-718 1-1-5; concentrations of Table 5; 22° C., 14 days
Method: A medium was prepared as described below, so as to examine the pyroxasulfone resistance of the Arabidopsis thaliana plant comprising the TaQ8GTC0 gene introduced therein. At the outset, the Murashige-Skoog (MS) media (1 bag), thiamin hydrochloride (3 mg), nicotinic acid (5 mg), pyridoxin hydrochloride (0.5 mg), and sucrose (10 g) were added into a 1-liter beaker, a pH was adjusted to 5.7, the volume of the content was adjusted to 1 liter, and 8 g (0.8%) of agar was added. The resultant was autoclaved and cooled to room temperature, and pyroxasulfone (an acetone solution) was added thereto. A 30-ml fraction thereof was fractionated into a No. 2 square plate to prepare an MS medium containing pyroxasulfone at a given concentration.
Pyroxasulfone sensitivity of transgenic Arabidopsis thaliana plants was tested with the use of the medium prepared above as described below. A necessary amount of Arabidopsis thaliana dry seeds was agitated in 70% ethanol for 2 minutes and in hypochlorous acid containing 0.02% Triton-X-100 for 15 minutes, followed by washing with sterile water 10 times. Subsequently, the seeds were suspended in 1 ml of the autoclaved 0.1% agar solution, the suspension was thoroughly mixed to prepare a homogeneous solution, and a total of 30 seeds were each placed on the medium surface. The resultant was sealed with a surgical tape, allowed to stand at 4° C. for 2 days, and then transferred to 22° C. for germination.
On the basis of the concentrations above, sensitivity of the Arabidopsis thaliana plant comprising the TaQ8GTC0 gene introduced therein to VLCFAE-inhibiting herbicides was examined. The results are show in FIGS. 13 and 14. The photographs shown in FIGS. 13 and 14 were taken after the plants were grown at 22° C. for 14 days.

TaQ8GTC1-R protein = assay: Glutathione conjugation activity of the TaQ8GTC1-R protein to CDNB (absorbance at 340 nm); format: biochemical, wheat; details: 30° C., pH 7.6, n=2
Method: The glutathione conjugation activity to CDNB was assayed in a reaction mixture (1 ml in total) containing 634 μl of 100 mM potassium phosphate buffer (pH 7.6), 300 μl of 3.3 mM reduced glutathione, 33 μl of a purified enzyme (PBS solution containing 20% glycerol), and 33 μl of 30 mM CDNB (ethanol solution). First, reaction mixture except CDNB was prepared, enzyme reaction was started by the addition of CDNB, and the absorbance at 340 nm was monitored at 30° C. The enzyme activity was calculated using a molar extinction coefficient of glutathione conjugate of CDNB (GS-CDNB) (9.6 mM^−1cm^−1). The amount of GS-CDNB produced in a negative control mixture prepared with the addition of PBS containing 20% glycerol instead of the enzyme (i.e., a non-enzymatic reaction group) was designated as the amount of non-enzymatic production.

[5] = minimal concentration at which growth of wild-type rice is inhibited
[6] = shoot growth, 1 week, Probit method

Chain of maize-derived GST (GSTI, ZmM16901) (P12653 whole entry): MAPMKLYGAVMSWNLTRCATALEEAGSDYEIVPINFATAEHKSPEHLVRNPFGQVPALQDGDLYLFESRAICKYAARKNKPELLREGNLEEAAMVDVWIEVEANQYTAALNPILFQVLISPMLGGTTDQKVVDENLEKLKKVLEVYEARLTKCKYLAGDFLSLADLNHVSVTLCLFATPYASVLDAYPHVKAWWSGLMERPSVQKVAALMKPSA

Work on COP(=S)(OC)SCC(=O)N(c1ccc(Cl)cc1)C(C)(C)C [Anilofos] yielded a minimal effective concentration [1, 5] of 0.5 µM and an IC50 [1, 6] of 0.377 µM.
In the case of CN(C(=O)COc1nc2ccccc2s1)c1ccccc1 [Mefenacet], the “growth of rice plants comprising the TaQ8GTC0 gene on herbicide medium” value (shortened to “growth”) [2] is reported as “not affected at the minimal concentration, but the growth thereof was inhibited at the 4-fold concentration”, the minimal effective concentration [1, 5] is reported as 0.75 µM and the IC50 [1, 6] is reported as 0.388 µM.
For CCc1cccc(CC)c1N(COC)C(=O)CCl [Alachlor], the “Enzyme activity (glutathione conjugation)” value (from here on “Enzyme activity”) (TaQ8GTC0 protein) is listed as 1.5 ± 0.1 μmol/mg protein/15 min, the “growth” value [2] is listed as “not affected at the minimal concentration, but the growth thereof was inhibited at the 4-fold concentration” and the conjugation activity (ZmGST8 (ZmQ9FQD1)) is listed as “does not exert conjugation activity”. The minimal effective concentration [1, 5] was 0.5 µM, the IC50 [1, 6] was 0.332 µM and the conjugation activity [3] was “high-level conjugation activity”.
In the case of CCCOP(=S)(OCCC)SCC(=O)N1CCCCC1C (stereo not drawn) [Piperophos], the “growth” value [2] is reported as “the growth thereof was inhibited at the minimal concentration”, the IC50 [1] is reported as 1.31 µM and the minimal effective concentration [1] is reported as 2.5 µM.
For CCc1cccc(C)c1N(C(=O)CCl)C(C)COC (stereo not drawn) [Metolachlor], the “Enzyme activity” value (TaQ8GTC0 protein) was 2.2 ± 0.8 μmol/mg protein/15 min, the “growth” value [2] was “not affected at the minimal concentration, but the growth thereof was inhibited at the 4-fold concentration” and the minimal effective concentration [1, 5] was 0.75 µM. The IC50 [1, 6] was 0.636 µM and the conjugation activity [3] was “does not exert conjugation activity”.
For CCC1(CC2(c3cccc(Cl)c3)CO2)C(=O)c2ccccc2C1=O (stereo not drawn) [Indanofan], the “growth” value [2] was “the growth thereof was inhibited at the minimal concentration”, the minimal effective concentration [1, 5] was 0.25 µM and the IC50 [1, 6] was 0.061 µM.
For CCN(CC)C(=O)n1cnc(S(=O)(=O)c2c(C)cc(C)cc2C)n1 [Cafenstrole], the “Enzyme activity” value (TaQ8GTC0 protein) was 0.46 ± 0.1 μmol/mg protein/15 min, the “growth” value [2] was “the growth thereof was inhibited at the minimal concentration” and the minimal effective concentration [1, 5] was 0.75 µM. The IC50 [1, 6] was 0.131 µM.
With CCOc1cc(Cl)c(CS(=O)(=O)C2=NOC(C)(C)C2)cc1Cl [Fenoxasulfone, 3-[(2,5-dichloro-4-ethoxybenzyl)sulfonyl]-4,5-dihydro-5,5-dimethyl-1,2-oxazole] the “sensitivity of the Arabidopsis thaliana plant comprising the TaQ8GTC0 gene to VLCFAE-inhibiting herbicides” value [4] was “strong resistance”, the “Enzyme activity” value (TaQ8GTC0 protein) was 19.5 ± 8.4 μmol/mg protein/15 min and the “growth” value [2] was “the growth thereof was not affected at the maximal test concentration”. The minimal effective concentration [1, 5] was 0.05 µM and the IC50 [1, 6] was 0.054 µM.
With CC(C)N(C(=O)COc1nnc(C(F)(F)F)s1)c1ccc(F)cc1 [Flufenacet] the “growth” value [2] was “the growth thereof was inhibited at the minimal concentration”, the minimal effective concentration [1, 5] was 0.075 µM and the IC50 [1, 6] was 0.042 µM.
For O=[N+]([O-])c1ccc(Cl)c([N+](=O)[O-])c1 [CDNB, 2,4-dinitrochlorobenzene], the “glutathione conjugation activity to CDNB” value (TaQ8GTC1-R protein) was 2.17 μmol/min/mg protein.
For CCN(C(=O)n1nnn(-c2ccccc2Cl)c1=O)C1CCCCC1 [Fentrazamide], the “Enzyme activity” value (TaQ8GTC0 protein) was 0.93 ± 0.2 μmol/mg protein/15 min, the “growth” value [2] was “the growth thereof was inhibited at the minimal concentration” and the minimal effective concentration [1, 5] was 0.5 µM. For the same compound, the IC50 [1, 6] was 0.046 µM.
